The NIST ThermoML archive (doi:10.1016/j.fluid.2008.03.004)
Numbers after ± are expanded uncertainties.

Assay: xn = mol fraction of the nth substance listed
Settings: 101 kPa, Liquid; for speed of sound: Sing-around technique in a fixed-path interferometer

CCOC(C)(C)C [2-ethoxy-2-methylpropane] + Cc1cccc(C)c1
Settings | mass density [kg/m3] | speed of sound [m/s]
305.65 K, x1 = 0.05 | 847.026 ± 0.42 | –
305.65 K, x1 = 0.099 | 840.74 ± 0.43 | –
305.65 K, x1 = 0.2 | 828.116 ± 0.45 | –
305.65 K, x1 = 0.3 | 815.278 ± 0.47 | –
305.65 K, x1 = 0.4 | 802.699 ± 0.48 | –
305.65 K, x1 = 0.497 | 790.26 ± 0.5 | –
305.65 K, x1 = 0.598 | 777.566 ± 0.52 | –
305.65 K, x1 = 0.698 | 765.236 ± 0.54 | –
305.65 K, x1 = 0.8 | 752.76 ± 0.56 | –
305.65 K, x1 = 0.898 | 740.246 ± 0.57 | –
305.65 K, x1 = 0.95 | 733.801 ± 0.58 | –
305.65 K, x1 = 1 | 727.038 ± 0.58 | –
308.15 K, x1 = 0.05 | 844.847 ± 0.42 | 1261.4 ± 2.2
308.15 K, x1 = 0.099 | 838.542 ± 0.43 | 1248.3 ± 2.2
308.15 K, x1 = 0.2 | 825.874 ± 0.45 | 1219 ± 2.2
308.15 K, x1 = 0.3 | 812.993 ± 0.47 | 1189.3 ± 2.2
308.15 K, x1 = 0.4 | 800.369 ± 0.49 | 1159.9 ± 2.2
308.15 K, x1 = 0.497 | 787.887 ± 0.5 | 1131 ± 2.2
308.15 K, x1 = 0.598 | 775.147 ± 0.52 | 1101.7 ± 2.2
308.15 K, x1 = 0.698 | 762.77 ± 0.54 | 1074.5 ± 2.2
308.15 K, x1 = 0.8 | 750.245 ± 0.56 | 1045.6 ± 2.2
308.15 K, x1 = 0.898 | 737.68 ± 0.58 | 1018.8 ± 2.2
308.15 K, x1 = 0.95 | 731.212 ± 0.59 | 1004.3 ± 2.2
308.15 K, x1 = 1 | 724.443 ± 0.58 | 986.39 ± 2.2
310.65 K, x1 = 0.05 | 842.667 ± 0.43 | 1251.2 ± 2.2
310.65 K, x1 = 0.099 | 836.338 ± 0.43 | 1238 ± 2.2
310.65 K, x1 = 0.2 | 823.629 ± 0.45 | 1208.6 ± 2.2
310.65 K, x1 = 0.3 | 810.701 ± 0.47 | 1178.8 ± 2.2
310.65 K, x1 = 0.4 | 798.033 ± 0.49 | 1149.3 ± 2.2
310.65 K, x1 = 0.497 | 785.51 ± 0.51 | 1120.3 ± 2.2
310.65 K, x1 = 0.598 | 772.72 ± 0.53 | 1091 ± 2.2
310.65 K, x1 = 0.698 | 760.296 ± 0.54 | 1063.7 ± 2.2
310.65 K, x1 = 0.8 | 747.726 ± 0.56 | 1034.7 ± 2.2
310.65 K, x1 = 0.898 | 735.108 ± 0.58 | 1007.8 ± 2.2
310.65 K, x1 = 0.95 | 728.609 ± 0.59 | 993.27 ± 2.2
310.65 K, x1 = 1 | 721.826 ± 0.59 | 975.42 ± 2.2
313.15 K, x1 = 0.05 | 840.482 ± 0.43 | 1241 ± 2.2
313.15 K, x1 = 0.099 | 834.132 ± 0.44 | 1227.8 ± 2.2
313.15 K, x1 = 0.2 | 821.379 ± 0.46 | 1198.3 ± 2.2
313.15 K, x1 = 0.3 | 808.405 ± 0.47 | 1168.3 ± 2.2
313.15 K, x1 = 0.4 | 795.695 ± 0.49 | 1138.9 ± 2.2
313.15 K, x1 = 0.497 | 783.123 ± 0.51 | 1109.8 ± 2.2
313.15 K, x1 = 0.598 | 770.288 ± 0.53 | 1080.4 ± 2.2
313.15 K, x1 = 0.698 | 757.817 ± 0.55 | 1053 ± 2.2
313.15 K, x1 = 0.8 | 745.2 ± 0.57 | 1024 ± 2.2
313.15 K, x1 = 0.898 | 732.523 ± 0.58 | 996.88 ± 2.2
313.15 K, x1 = 0.95 | 726.007 ± 0.59 | 982.39 ± 2.2
313.15 K, x1 = 1 | 719.179 ± 0.59 | 964.53 ± 2.2
315.65 K, x1 = 0.05 | 838.29 ± 0.43 | 1230.9 ± 2.2
315.65 K, x1 = 0.099 | 831.922 ± 0.44 | 1217.6 ± 2.2
315.65 K, x1 = 0.2 | 819.125 ± 0.46 | 1188 ± 2.2
315.65 K, x1 = 0.3 | 806.105 ± 0.48 | 1157.9 ± 2.2
315.65 K, x1 = 0.4 | 793.351 ± 0.5 | 1128.5 ± 2.2
315.65 K, x1 = 0.497 | 780.733 ± 0.52 | 1099.2 ± 2.2
315.65 K, x1 = 0.598 | 767.848 ± 0.53 | 1069.7 ± 2.2
315.65 K, x1 = 0.698 | 755.328 ± 0.55 | 1042.3 ± 2.2
315.65 K, x1 = 0.8 | 742.656 ± 0.57 | 1013.2 ± 2.2
315.65 K, x1 = 0.898 | 729.931 ± 0.59 | 985.99 ± 2.2
315.65 K, x1 = 0.95 | 723.382 ± 0.6 | 971.39 ± 2.2
315.65 K, x1 = 1 | 716.527 ± 0.59 | 953.54 ± 2.2
318.15 K, x1 = 0.05 | 836.094 ± 0.44 | 1220.7 ± 2.2
318.15 K, x1 = 0.099 | 829.704 ± 0.45 | 1207.4 ± 2.2
318.15 K, x1 = 0.2 | 816.865 ± 0.46 | 1177.8 ± 2.2
318.15 K, x1 = 0.3 | 803.8 ± 0.48 | 1147.6 ± 2.2
318.15 K, x1 = 0.4 | 790.999 ± 0.5 | 1118 ± 2.2
318.15 K, x1 = 0.497 | 778.333 ± 0.52 | 1088.7 ± 2.2
318.15 K, x1 = 0.598 | 765.399 ± 0.54 | 1059.2 ± 2.2
318.15 K, x1 = 0.698 | 752.842 ± 0.56 | 1031.8 ± 2.2
318.15 K, x1 = 0.8 | 740.101 ± 0.57 | 1002.4 ± 2.2
318.15 K, x1 = 0.898 | 727.323 ± 0.59 | 975.1 ± 2.2
318.15 K, x1 = 0.95 | 720.743 ± 0.6 | 960.42 ± 2.2
318.15 K, x1 = 1 | 713.96 ± 0.6 | 942.67 ± 2.2
320.65 K, x1 = 0.05 | 833.892 ± 0.44 | 1210.6 ± 2.2
320.65 K, x1 = 0.099 | 827.484 ± 0.45 | 1197.3 ± 2.2
320.65 K, x1 = 0.2 | 814.602 ± 0.47 | 1167.6 ± 2.2
320.65 K, x1 = 0.3 | 801.489 ± 0.49 | 1137.3 ± 2.2
320.65 K, x1 = 0.4 | 788.639 ± 0.5 | 1107.6 ± 2.2
320.65 K, x1 = 0.497 | 775.926 ± 0.52 | 1078.3 ± 2.2
320.65 K, x1 = 0.598 | 762.944 ± 0.54 | 1048.6 ± 2.2
320.65 K, x1 = 0.698 | 750.335 ± 0.56 | 1021.1 ± 2.2
320.65 K, x1 = 0.8 | 737.539 ± 0.58 | 991.66 ± 2.2
320.65 K, x1 = 0.898 | 724.705 ± 0.6 | 964.24 ± 2.2
320.65 K, x1 = 0.95 | 718.093 ± 0.61 | 949.5 ± 2.2
320.65 K, x1 = 1 | 711.25 ± 0.6 | 931.73 ± 2.2
323.15 K, x1 = 0.05 | 831.689 ± 0.44 | 1200.6 ± 2.2
323.15 K, x1 = 0.099 | 825.258 ± 0.45 | 1187.2 ± 2.2
323.15 K, x1 = 0.2 | 812.331 ± 0.47 | 1157.4 ± 2.2
323.15 K, x1 = 0.3 | 799.17 ± 0.49 | 1127 ± 2.2
323.15 K, x1 = 0.4 | 786.273 ± 0.51 | 1097.3 ± 2.2
323.15 K, x1 = 0.497 | 773.51 ± 0.53 | 1067.8 ± 2.2
323.15 K, x1 = 0.598 | 760.487 ± 0.54 | 1038.2 ± 2.2
323.15 K, x1 = 0.698 | 747.817 ± 0.56 | 1010.4 ± 2.2
323.15 K, x1 = 0.8 | 734.964 ± 0.58 | 980.96 ± 2.2
323.15 K, x1 = 0.898 | 722.075 ± 0.6 | 953.5 ± 2.2
323.15 K, x1 = 0.95 | 715.433 ± 0.61 | 938.66 ± 2.2
323.15 K, x1 = 1 | 708.642 ± 0.61 | 920.73 ± 2.2
